Reference: PubChem BioAssay (NCI)
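Abbreviation: GI50, concentration required for 50% inhibition of growth. TGI is the concentration that stops growth completely.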

Tests used:
Assay in all cases: DTP human tumour cell line panel, 384-well format
DU-145 prostate = system: DU-145 prostate
HCC-2998 colon = system: HCC-2998 colon
NCI-H522 lung = system: NCI-H522 lung
OVCAR-3 ovarian = system: OVCAR-3 ovarian
OVCAR-4 ovarian = system: OVCAR-4 ovarian
OVCAR-5 ovarian = system: OVCAR-5 ovarian
SK-MEL-28 melanoma = system: SK-MEL-28 melanoma
SK-MEL-5 melanoma = system: SK-MEL-5 melanoma
SK-OV-3 ovarian = system: SK-OV-3 ovarian
SNB-19 CNS = system: SNB-19 CNS
T-47D breast = system: T-47D breast
UACC-257 melanoma = system: UACC-257 melanoma
UACC-62 melanoma = system: UACC-62 melanoma

SMILES: COc1cc(C)[nH]c(=O)c1CNC(=O)c1c(C)n([C@H](C)C2CCN(CC(F)(F)F)CC2)c2ccccc12
- GI50 (DU-145 prostate): 51.1 µM
- TGI (DU-145 prostate): > 100 µM
- GI50 (HCC-2998 colon): 65.3 µM
- TGI (HCC-2998 colon): > 100 µM
- GI50 (NCI-H522 lung): 65.2 µM
- TGI (NCI-H522 lung): > 100 µM
- GI50 (OVCAR-3 ovarian): 34.2 µM
- TGI (OVCAR-3 ovarian): > 96.5 µM
- GI50 (OVCAR-4 ovarian): 45.5 µM
- TGI (OVCAR-4 ovarian): > 100 µM
- GI50 (OVCAR-5 ovarian): > 100 µM
- TGI (OVCAR-5 ovarian): > 100 µM
- GI50 (SK-MEL-28 melanoma): 98.2 µM
- TGI (SK-MEL-28 melanoma): > 100 µM
- GI50 (SK-MEL-5 melanoma): 33.5 µM
- TGI (SK-MEL-5 melanoma): > 65.5 µM
- GI50 (SK-OV-3 ovarian): 56.6 µM
- TGI (SK-OV-3 ovarian): > 100 µM
- GI50 (SNB-19 CNS): > 100 µM
- TGI (SNB-19 CNS): > 100 µM
- GI50 (T-47D breast): 29.7 µM
- TGI (T-47D breast): > 94.1 µM
- GI50 (UACC-257 melanoma): 50.3 µM
- TGI (UACC-257 melanoma): > 100 µM
- GI50 (UACC-62 melanoma): 37.9 µM
- TGI (UACC-62 melanoma): > 100 µM
